Values quoted from earlier work in patent US10603382B2, “Ophthalmic composition” (Johnson & Johnson Consumer Inc., priority 2014, dated 2020).

Conditions: Merck Index, Twelfth Edition

In order of rising “Solubility (g/100 ml water at 25° C.)” value:
1. O=C(O)/C=C/C(=O)O [Fumaric acid]  0.63 g/100 ml
2. O=C(O)CCCC(=O)O [Glutaric acid]  63.9 g/100 ml
3. O=C(O)/C=C\C(=O)O [Maleic acid]  78 g/100 ml
